Laboratory results published in patent US20190047966A1, “NOVEL COMPOUND AND PHARMACOLOGICALLY ACCEPTABLE SALT THEREOF” (MEIJI SEIKA PHARMA CO., LTD., priority 2016, published 2019).
Counter-ions that a name gives are not always drawn.

Tests used:
[1] = molecular target: human histamine H1 receptor (Homo sapiens, UniProt P35367); assay: Evaluation of Human H1 Receptor Affinity ([3H]pyrilamine binding); set-up: purchased PerkinElmer Inc; host or cells: CHO-K1; settings: inhibition constant Ki, CHO-K1 membrane preparation
Sequence of human histamine H1 receptor (P35367 whole entry): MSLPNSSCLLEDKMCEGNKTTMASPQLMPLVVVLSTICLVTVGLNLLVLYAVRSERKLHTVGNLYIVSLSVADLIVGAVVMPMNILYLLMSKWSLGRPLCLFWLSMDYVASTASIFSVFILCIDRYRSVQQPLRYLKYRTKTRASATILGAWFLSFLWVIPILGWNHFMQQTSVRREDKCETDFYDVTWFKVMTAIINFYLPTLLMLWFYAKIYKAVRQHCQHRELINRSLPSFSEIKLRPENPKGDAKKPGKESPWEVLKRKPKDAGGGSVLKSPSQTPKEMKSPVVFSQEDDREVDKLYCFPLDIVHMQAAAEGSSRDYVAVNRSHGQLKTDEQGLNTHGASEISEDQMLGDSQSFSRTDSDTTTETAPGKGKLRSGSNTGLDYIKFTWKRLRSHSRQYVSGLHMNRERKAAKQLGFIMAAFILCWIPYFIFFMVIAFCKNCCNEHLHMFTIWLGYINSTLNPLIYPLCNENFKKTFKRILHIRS
Procedure: Test Example 1: Evaluation of Human H1 Receptor Affinity
Membrane preparation from recombinant CHO-K1 cell expressing the human histamine H1 receptor (PerkinElmer Inc.), radiolabeled ligand 1.2 nM [^3H]pyrilamine (PerkinElmer Inc.), and test compounds dissolved in DMSO were reacted at 25° C. for 3 hours in a buffering solution containing 50 mM tris-hydrochloric acid, pH 7.4, and 5 mM magnesium chloride on a 96 well plate, followed by filtration using a GF/B filter (PerkinElmer Inc.) pretreated with 0.3% polyethylenimine. The residue was washed four times with a buffering solution of 50 mM tris-hydrochloric acid, pH 7.4. Thereafter, a scintillation cocktail (MicroScint 20: PerkinElmer Inc.) was added to the GF/B filter, and the radioactivity of each well was measured using a liquid scintillation counter for 96-well (TopCount: PerkinElmer Inc.). The non-specific binding was evaluated in the presence of 1.0 μM pyrilamine. The inhibition constant Ki was calculated from the 50% inhibitory concentration (IC50 value) obtained in each test and the Kd value (1.1 nM) unique to this assay system, according to the Cheng-Prusoff equation.

[2] = molecular target: T1, human histamine H4 receptor (Homo sapiens, UniProt Q9H3N8); assay: Evaluation of Human H4 Receptor Affinity ([3H]histamine binding); settings: inhibition constant Ki, CHO-K1 membrane preparation, read-out: Evaluation of H4 Receptor Affinity
T1 construct: purchased PerkinElmer Inc; host or cells: CHO-K1
Procedure: Test Example 2: Evaluation of Human H4 Receptor Affinity
Membrane preparation from recombinant CHO-K1 cell expressing the human histamine H4 receptor (PerkinElmer Inc.), radiolabeled ligand 8.2 nM [^3H]histamine (PerkinElmer Inc.), and compounds dissolved in DMSO were reacted at 25° C. for 90 minutes in a buffering solution containing 50 mM tris-hydrochloric acid, pH 7.4, and 1.25 mM EDTA on a 96 well plate, followed by filtration using a GF/B filter (PerkinElmer Inc.) pretreated with 0.3% polyethylenimine. The residue was washed four times with a buffering solution of 50 mM tris-hydrochloric acid, pH 7.4. Thereafter, a scintillation cocktail (MicroScint 20: PerkinElmer Inc.) was added to the GF/B filter, and the radioactivity of each well was measured using a liquid scintillation counter for 96-well (TopCount: PerkinElmer Inc.). The non-specific binding was evaluated in the presence of 1.0 μM histamine. The inhibition constant Ki was calculated from the 50% inhibitory concentration (IC50 value) obtained in each test and the Kd value (5.7 nM) unique to this assay system, according to the Cheng-Prusoff equation.

Row | Ki [1] [nM] | Ki [2] [nM] | SMILES
1 | < 100 | 100 to 500 | COC(=O)c1ccc(COCCN2CCN(c3nc(N)nc4c3CCc3cc(OCc5ccc(Cl)cc5)ccc3-4)CC2)cc1 [128(a), methyl 4-((2-(4-(2-amino-8-((4-chlorobenzyl)oxy)-5,6-dihydrobenzo[h]quinazolin-4-yl)piperazin-1-yl)ethoxy)methyl)benzoate]
2 | < 100 | < 100 | Nc1nc2c(c(N3CCN(CCOCc4ccc(C(=O)O)cc4)CC3)n1)CCc1cc(OCc3ccc(Cl)cc3)ccc1-2 [128(b), 4-((2-(4-(2-amino-8-((4-chlorobenzyl)oxy)-5,6-dihydrobenzo[h]quinazolin-4-yl)piperazin-1-yl)ethoxy)methyl)benzoic acid]
3 | < 100 | 100 to 500 | COC(=O)c1ccc(F)c(COCCN2CCN(c3nc(N)nc4c3CCc3cc(OCc5ccc(Cl)cc5)ccc3-4)CC2)c1 [129(a), methyl 3-((2-(4-(2-amino-8-((4-chlorobenzyl)oxy)-5,6-dihydrobenzo[h]quinazolin-4-yl)piperazin-1-yl)ethoxy)methyl)-4-fluorobenzoate]
4 | < 100 | 100 to 500 | COC(=O)c1cccc(OCCCN2CCN(c3nc(N)nc4c3CCc3cc(OCc5ccc(Cl)cc5)ccc3-4)CC2)c1 [131(a), methyl 3-(3-(4-(2-amino-8-((4-chlorobenzyl)oxy)-5,6-dihydrobenzo[h]quinazolin-4-yl)piperazin-1-yl)propoxy)benzoate]
5 | < 100 | 100 to 500 | Nc1nc2c(c(N3CCN(CCCOc4cccc(C(=O)O)c4)CC3)n1)CCc1cc(OCc3ccc(Cl)cc3)ccc1-2 [131(b), 3-(3-(4-(2-amino-8-((4-chlorobenzyl)oxy)-5,6-dihydrobenzo[h]quinazolin-4-yl)piperazin-1-yl)propoxy)benzoic acid]
6 | < 100 | < 100 | CCOC(=O)c1csc(COCCN2CCN(c3nc(N)nc4c3CCc3cc(OCc5ccc(Cl)cc5)ccc3-4)CC2)n1 [135(a), ethyl 2-((2-(4-(2-amino-8-((4-chlorobenzyl)oxy)-5,6-dihydrobenzo[h]quinazolin-4-yl)piperazin-1-yl)ethoxy)methyl)thiazole-4-carboxylate]
7 | < 100 | < 100 | Nc1nc2c(c(N3CCN(CCOCc4nc(C(=O)O)cs4)CC3)n1)CCc1cc(OCc3ccc(Cl)cc3)ccc1-2 [135(b), 2-((2-(4-(2-amino-8-((4-chlorobenzyl)oxy)-5,6-dihydrobenzo[h]quinazolin-4-yl)piperazin-1-yl)ethoxy)methyl)thiazole-4-carboxylic acid dihydrochloride]
8 | < 100 | 100 to 500 | CCOC(=O)C1(C#N)CCC(COCCN2CCN(c3nc(N)nc4c3CCc3cc(OCc5ccc(Cl)cc5)ccc3-4)CC2)CC1 (stereo not drawn) [159(a), ethyl cis- or trans-4-((2-(4-(2-amino-8-((4-chlorobenzyl)oxy)-5,6-dihydrobenzo[h]quinazolin-4-yl)piperazin-1-yl)ethoxy)methyl)-1-cyanocyclohexane-1-carboxylate]
9 | < 100 | < 100 | N#CC1(C(=O)O)CCC(COCCN2CCN(c3nc(N)nc4c3CCc3cc(OCc5ccc(Cl)cc5)ccc3-4)CC2)CC1 (stereo not drawn) [159(b), cis- or trans-4-((2-(4-(2-amino-8-((4-chlorobenzyl)oxy)-5,6-dihydrobenzo[h]quinazolin-4-yl)piperazin-1-yl)ethoxy)methyl)-1-cyanocyclohexane-1-carboxylic acid hydrochloride]
10 | < 100 | 100 to 500 | CCOC(=O)C1(C#N)CCC(COCCN2CCN(c3nc(N)nc4c3CCc3cc(OCc5ccc(Cl)cc5)ccc3-4)CC2)CC1 (stereo not drawn) [160(a), ethyl trans- or cis-4-((2-(4-(2-amino-8-((4-chlorobenzyl)oxy)-5,6-dihydrobenzo[h]quinazolin-4-yl)piperazin-1-yl)ethoxy)methyl)-1-cyanocyclohexane-1-carboxylate]
